One compound from article PMC5025758 (Nature Communications, 2016) can be followed below.

SMILES strings stand for the structures.

Test [1] has as its target T1, Serotonin 5HT2A (Homo sapiens, UniProt P28223).
T1 construct: gene HTR2A
Description: cell-based. Further details: off-target selectivity panel, receptor agonist or channel opener mode, pXC50. The conditions noted are these: agonist mode; read-out: pXC50 (agonist) (converted). An excerpt:
(§1) From the outset, GSK3011724A, an indazole sulfonamide (Fig. 1a), represented an attractive compound for early stage drug discovery based on its anti-mycobacterial potency, small size and moderate lipophilicity (Table 1). Further profiling in vitro using standard assays, such as the hERG ion channel and cytochrome P450 isoforms supported this view (Table 1). […] A description of this optimization effort along with a thorough discussion of the drug development potential and liabilities of this series will be the subject of a future publication.

The target in another test is T2, hERG (Homo sapiens, UniProt Q12809).
T2 construct: gene KCNH2
Kind of test: cell-based. Conditions: read-out: pXC50 (blocker / transporter inhibition) (converted). Also noted: off-target selectivity panel, receptor antagonist, channel blocker or transporter inhibition mode, pXC50.
Source text: as §1

Test [2] deals with T3, L-type Ca channel (CaV1.2) (Homo sapiens, UniProt Q13936).
T3 construct: gene CACNA1C
Description: cell-based. Further details: off-target selectivity panel, receptor antagonist, channel blocker or transporter inhibition mode, pXC50. Conditions: read-out: pXC50 (blocker / transporter inhibition) (converted).
Source text: as §1

The target of another test is T4, Vasopressin V1a (Homo sapiens, UniProt P37288).
T4 construct: gene AVPR1A
Kind of test: cell-based. Also noted: off-target selectivity panel, receptor antagonist, channel blocker or transporter inhibition mode, pXC50. The conditions noted are these: antagonist mode; read-out: pXC50 (antagonist) (converted).
Source text: as §1

A further test has as its target T5, Kv1.5 (Homo sapiens, UniProt P22460).
T5 construct: gene KCNA5
Description: cell-based. Conditions: read-out: pXC50 (blocker / transporter inhibition) (converted). Further details: off-target selectivity panel, receptor antagonist, channel blocker or transporter inhibition mode, pXC50.
Source text: as §1

In a further test the target is T6, Histamine H1 (Homo sapiens, UniProt P35367).
T6 construct: gene HRH1
T6 sequence (P35367 whole entry): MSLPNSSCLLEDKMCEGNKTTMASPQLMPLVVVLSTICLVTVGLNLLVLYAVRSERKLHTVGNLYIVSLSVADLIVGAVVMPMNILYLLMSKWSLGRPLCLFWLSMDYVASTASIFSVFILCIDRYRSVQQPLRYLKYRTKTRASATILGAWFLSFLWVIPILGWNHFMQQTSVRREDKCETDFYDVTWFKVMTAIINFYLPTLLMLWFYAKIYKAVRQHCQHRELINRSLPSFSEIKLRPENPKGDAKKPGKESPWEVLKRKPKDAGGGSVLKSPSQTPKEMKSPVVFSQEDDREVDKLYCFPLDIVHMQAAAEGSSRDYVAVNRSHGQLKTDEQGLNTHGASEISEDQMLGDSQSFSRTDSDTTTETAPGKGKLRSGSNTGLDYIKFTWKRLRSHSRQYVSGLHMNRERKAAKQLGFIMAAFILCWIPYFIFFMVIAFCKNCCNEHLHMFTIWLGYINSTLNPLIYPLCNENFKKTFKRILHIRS
Kind of test: cell-based. Also noted: off-target selectivity panel, receptor antagonist, channel blocker or transporter inhibition mode, pXC50. Conditions: antagonist mode; read-out: pXC50 (antagonist) (converted).
Source text: as §1

A further test deals with T7, KCNQ1/minK (Homo sapiens, UniProt P15382+P51787).
T7 construct: gene KCNE1
T7 sequence (P51787 whole entry): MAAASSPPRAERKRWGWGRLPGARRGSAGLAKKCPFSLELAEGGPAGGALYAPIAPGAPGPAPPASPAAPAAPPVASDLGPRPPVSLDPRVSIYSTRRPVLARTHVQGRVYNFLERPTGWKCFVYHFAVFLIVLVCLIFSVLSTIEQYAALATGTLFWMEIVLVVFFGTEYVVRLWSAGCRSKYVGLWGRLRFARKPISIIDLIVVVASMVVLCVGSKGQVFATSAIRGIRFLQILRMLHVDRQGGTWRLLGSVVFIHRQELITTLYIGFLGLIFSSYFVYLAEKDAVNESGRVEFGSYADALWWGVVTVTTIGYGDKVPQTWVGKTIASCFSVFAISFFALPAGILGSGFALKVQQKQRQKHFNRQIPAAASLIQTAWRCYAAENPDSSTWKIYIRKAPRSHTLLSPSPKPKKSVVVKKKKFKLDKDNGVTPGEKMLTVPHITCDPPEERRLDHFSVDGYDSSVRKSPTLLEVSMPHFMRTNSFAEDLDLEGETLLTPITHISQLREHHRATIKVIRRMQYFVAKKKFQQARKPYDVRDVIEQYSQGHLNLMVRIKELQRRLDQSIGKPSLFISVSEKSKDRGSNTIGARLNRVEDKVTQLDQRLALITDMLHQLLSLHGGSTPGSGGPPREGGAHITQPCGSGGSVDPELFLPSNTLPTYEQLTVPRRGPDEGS
Description: cell-based. Further details: off-target selectivity panel, receptor antagonist, channel blocker or transporter inhibition mode, pXC50. The conditions noted are these: read-out: pXC50 (blocker / transporter inhibition) (converted).
Source text: as §1

In the next test the target is T8, Muscarine M1 (Homo sapiens, UniProt P11229).
T8 construct: gene CHRM1
T8 sequence (P11229 whole entry): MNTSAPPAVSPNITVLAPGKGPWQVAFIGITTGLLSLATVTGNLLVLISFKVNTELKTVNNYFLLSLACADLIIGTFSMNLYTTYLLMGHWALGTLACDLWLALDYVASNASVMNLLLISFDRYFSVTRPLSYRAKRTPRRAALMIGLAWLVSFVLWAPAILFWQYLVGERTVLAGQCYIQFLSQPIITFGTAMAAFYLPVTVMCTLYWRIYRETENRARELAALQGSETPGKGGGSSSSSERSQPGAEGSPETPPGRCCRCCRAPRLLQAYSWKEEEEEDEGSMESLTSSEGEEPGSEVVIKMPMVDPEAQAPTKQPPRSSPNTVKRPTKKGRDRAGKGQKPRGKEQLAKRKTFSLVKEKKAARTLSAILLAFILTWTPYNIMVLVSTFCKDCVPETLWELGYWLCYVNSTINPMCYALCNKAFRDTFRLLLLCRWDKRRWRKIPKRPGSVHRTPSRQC
Description: cell-based. Further details: off-target selectivity panel, receptor antagonist, channel blocker or transporter inhibition mode, pXC50. Conditions: antagonist mode; read-out: pXC50 (antagonist) (converted).
Source text: as §1

Another test concerns the target T9, Dopamine D1 (Homo sapiens, UniProt P21728).
T9 construct: gene DRD1
Kind of test: cell-based. Further details: off-target selectivity panel, receptor antagonist, channel blocker or transporter inhibition mode, pXC50. Conditions: antagonist mode; read-out: pXC50 (antagonist) (converted).
Source text: as §1

In another test the target is T10, OATP1B1 (Homo sapiens, UniProt Q9Y6L6).
T10 construct: gene SLCO1B1
Kind of test: cell-based. Further details: off-target selectivity panel, receptor antagonist, channel blocker or transporter inhibition mode, pXC50. Conditions: read-out: pXC50 (blocker / transporter inhibition) (converted).
Source text: as §1

The target in another test is T11, Serotonin 5HT2C (Homo sapiens, UniProt P28335).
T11 construct: gene HTR2C
Kind of test: cell-based. Further details: off-target selectivity panel, receptor antagonist, channel blocker or transporter inhibition mode, pXC50. Conditions: antagonist mode; read-out: pXC50 (antagonist) (converted).
Source text: as §1

The next test has as its target T12, Adrenergic β2 (Homo sapiens, UniProt P07550).
T12 construct: gene ADRB2
Kind of test: cell-based. Further details: off-target selectivity panel, receptor antagonist, channel blocker or transporter inhibition mode, pXC50. Conditions: antagonist mode; read-out: pXC50 (antagonist) (converted).
Source text: as §1

In a further test the target is T13, Serotonin 5HT3 (Homo sapiens, UniProt P46098).
T13 construct: gene HTR3A
Kind of test: cell-based. Further details: off-target selectivity panel, receptor antagonist, channel blocker or transporter inhibition mode, pXC50. The conditions noted are these: read-out: pXC50 (blocker / transporter inhibition) (converted).
Source text: as §1

In a further test the target is T14, Muscarine M2 (Homo sapiens, UniProt P08172).
T14 construct: gene CHRM2
T14 sequence (P08172 whole entry): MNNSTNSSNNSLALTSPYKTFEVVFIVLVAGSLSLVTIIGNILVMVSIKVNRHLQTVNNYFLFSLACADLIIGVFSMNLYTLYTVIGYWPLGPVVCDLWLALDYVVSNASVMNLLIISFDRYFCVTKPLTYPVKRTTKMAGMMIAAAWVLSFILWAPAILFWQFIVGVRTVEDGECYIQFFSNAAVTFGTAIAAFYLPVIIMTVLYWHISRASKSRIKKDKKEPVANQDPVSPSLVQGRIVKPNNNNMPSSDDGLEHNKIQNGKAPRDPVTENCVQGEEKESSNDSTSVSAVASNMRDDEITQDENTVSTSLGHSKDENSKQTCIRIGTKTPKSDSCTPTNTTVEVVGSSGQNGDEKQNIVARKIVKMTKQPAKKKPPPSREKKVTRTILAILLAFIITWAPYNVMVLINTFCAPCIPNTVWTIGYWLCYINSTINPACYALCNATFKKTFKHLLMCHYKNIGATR
Description: cell-based. Also noted: off-target selectivity panel, receptor antagonist, channel blocker or transporter inhibition mode, pXC50. Conditions: antagonist mode; read-out: pXC50 (antagonist) (converted).
Source text: as §1

The next test concerns the target T15, Dopamine D2 (Homo sapiens, UniProt P14416).
T15 construct: gene DRD2
Description: cell-based. The conditions noted are these: antagonist mode; read-out: pXC50 (antagonist) (converted). Further details: off-target selectivity panel, receptor antagonist, channel blocker or transporter inhibition mode, pXC50.
Source text: as §1

The target of the next test is T16, Neurokinin NK1 (Homo sapiens, UniProt P25103).
T16 construct: gene TACR1
Description: cell-based. Further details: off-target selectivity panel, receptor antagonist, channel blocker or transporter inhibition mode, pXC50. The conditions noted are these: antagonist mode; read-out: pXC50 (antagonist) (converted).
Source text: as §1

The next test concerns the target T17, Serotonin 5HT1B (Homo sapiens, UniProt P28222).
T17 construct: gene HTR1B
Description: cell-based. Further details: off-target selectivity panel, receptor antagonist, channel blocker or transporter inhibition mode, pXC50. Conditions: antagonist mode; read-out: pXC50 (antagonist) (converted).
Source text: as §1

The target of the next test is T18, NaV1.5 (Homo sapiens, UniProt Q14524).
T18 construct: gene SCN5A
Description: cell-based. Conditions: read-out: pXC50 (blocker / transporter inhibition) (converted). Also noted: off-target selectivity panel, receptor antagonist, channel blocker or transporter inhibition mode, pXC50.
Source text: as §1

A further test deals with T19, NMDA Channel (NR2B) (Homo sapiens, UniProt Q13224).
T19 construct: gene GRIN2B
Description: cell-based. Also noted: off-target selectivity panel, receptor antagonist, channel blocker or transporter inhibition mode, pXC50. Conditions: read-out: pXC50 (blocker / transporter inhibition) (converted).
Source text: as §1

In the next test the target is T20, Adrenergic α1B (Homo sapiens, UniProt P35368).
T20 construct: gene ADRA1B
Description: cell-based. Further details: off-target selectivity panel, receptor antagonist, channel blocker or transporter inhibition mode, pXC50. Conditions: antagonist mode; read-out: pXC50 (antagonist) (converted).
Source text: as §1

Test [3] addresses T1, Serotonin 5HT2A. Kind of test: cell-based. The conditions noted are these: antagonist mode; read-out: pXC50 (antagonist) (converted). Further details: off-target selectivity panel, receptor antagonist, channel blocker or transporter inhibition mode, pXC50.
Source text: as §1

A further test deals with T21, α1 nicotinic AChR (Homo sapiens, UniProt P02708).
T21 construct: gene CHRNA1
T21 sequence (P02708 whole entry): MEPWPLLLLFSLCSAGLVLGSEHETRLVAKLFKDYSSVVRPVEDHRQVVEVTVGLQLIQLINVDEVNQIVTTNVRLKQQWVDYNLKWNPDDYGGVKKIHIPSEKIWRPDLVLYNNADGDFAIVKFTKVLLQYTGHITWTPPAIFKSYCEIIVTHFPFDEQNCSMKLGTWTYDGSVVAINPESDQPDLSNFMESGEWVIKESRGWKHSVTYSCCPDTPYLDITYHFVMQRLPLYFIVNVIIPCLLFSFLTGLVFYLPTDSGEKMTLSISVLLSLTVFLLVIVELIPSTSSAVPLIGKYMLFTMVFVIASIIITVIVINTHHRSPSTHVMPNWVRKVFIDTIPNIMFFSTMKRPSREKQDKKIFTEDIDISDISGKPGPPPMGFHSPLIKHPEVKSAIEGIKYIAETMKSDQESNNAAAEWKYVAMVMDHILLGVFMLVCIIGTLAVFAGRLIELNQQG
Description: cell-based. Further details: off-target selectivity panel, receptor antagonist, channel blocker or transporter inhibition mode, pXC50. The conditions noted are these: read-out: pXC50 (blocker / transporter inhibition) (converted).
Source text: as §1

The target in the next test is T22, KasA (Mycobacterium tuberculosis, UniProt P9WQD9).
T22 construct: recombinant KasA from pET28a-kasA
T22 sequence (P9WQD9 whole entry): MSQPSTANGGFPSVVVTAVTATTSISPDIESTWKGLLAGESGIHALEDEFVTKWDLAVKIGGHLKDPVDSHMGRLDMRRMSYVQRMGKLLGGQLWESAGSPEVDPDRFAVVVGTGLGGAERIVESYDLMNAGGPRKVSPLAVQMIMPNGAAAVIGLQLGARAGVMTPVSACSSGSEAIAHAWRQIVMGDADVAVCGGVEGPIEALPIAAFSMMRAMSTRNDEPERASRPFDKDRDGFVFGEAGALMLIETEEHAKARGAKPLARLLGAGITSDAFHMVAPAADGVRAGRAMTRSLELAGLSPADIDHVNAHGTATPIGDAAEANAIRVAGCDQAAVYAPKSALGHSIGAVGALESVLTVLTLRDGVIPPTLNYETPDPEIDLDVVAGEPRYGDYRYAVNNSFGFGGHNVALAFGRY
Description: […] Å co-crystal structure; […]; also chemoproteomic Kd app […] and […] enzyme inhibition at […]. Format: binding.

Another test addresses NQO2 (Homo sapiens, UniProt P16083). Description: chemoproteomic competition binding in mixed HEK293/K562/placenta extract, LC-MS/MS. Format: biochemical.

T1 sequence (P28223 whole entry, looked up): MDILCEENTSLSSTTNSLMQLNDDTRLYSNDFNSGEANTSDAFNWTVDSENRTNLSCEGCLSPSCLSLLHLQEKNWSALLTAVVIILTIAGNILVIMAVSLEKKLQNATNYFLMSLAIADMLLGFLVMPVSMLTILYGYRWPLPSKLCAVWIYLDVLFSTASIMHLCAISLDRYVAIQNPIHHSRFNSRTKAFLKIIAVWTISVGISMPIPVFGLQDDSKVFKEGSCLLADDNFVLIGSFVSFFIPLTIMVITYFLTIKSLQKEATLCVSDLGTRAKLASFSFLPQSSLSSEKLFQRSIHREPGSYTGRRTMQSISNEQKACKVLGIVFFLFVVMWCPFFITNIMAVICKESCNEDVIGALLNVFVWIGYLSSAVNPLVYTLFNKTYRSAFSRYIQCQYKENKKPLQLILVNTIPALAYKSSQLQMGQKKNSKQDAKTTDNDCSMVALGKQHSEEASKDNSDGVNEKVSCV
T15 sequence (P14416 whole entry): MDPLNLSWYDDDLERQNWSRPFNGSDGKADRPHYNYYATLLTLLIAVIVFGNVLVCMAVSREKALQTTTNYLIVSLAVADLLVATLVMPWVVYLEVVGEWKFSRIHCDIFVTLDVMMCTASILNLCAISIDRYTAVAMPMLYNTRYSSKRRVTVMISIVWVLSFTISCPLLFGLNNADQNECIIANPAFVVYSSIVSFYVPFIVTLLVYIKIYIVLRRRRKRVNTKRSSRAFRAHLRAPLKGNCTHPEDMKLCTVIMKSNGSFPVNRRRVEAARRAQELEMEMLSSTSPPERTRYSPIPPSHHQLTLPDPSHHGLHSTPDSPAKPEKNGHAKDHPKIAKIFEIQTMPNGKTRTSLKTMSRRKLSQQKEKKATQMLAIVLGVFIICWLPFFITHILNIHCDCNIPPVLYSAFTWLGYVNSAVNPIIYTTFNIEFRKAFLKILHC
NQO2, sequence (P16083 whole entry): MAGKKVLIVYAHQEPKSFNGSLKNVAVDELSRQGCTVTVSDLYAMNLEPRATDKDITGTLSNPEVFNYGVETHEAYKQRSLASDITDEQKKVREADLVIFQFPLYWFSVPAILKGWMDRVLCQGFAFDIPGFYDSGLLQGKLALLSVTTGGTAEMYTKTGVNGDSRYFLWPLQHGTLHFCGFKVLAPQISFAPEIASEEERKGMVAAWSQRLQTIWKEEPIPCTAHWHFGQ
T12 sequence (P07550 whole entry): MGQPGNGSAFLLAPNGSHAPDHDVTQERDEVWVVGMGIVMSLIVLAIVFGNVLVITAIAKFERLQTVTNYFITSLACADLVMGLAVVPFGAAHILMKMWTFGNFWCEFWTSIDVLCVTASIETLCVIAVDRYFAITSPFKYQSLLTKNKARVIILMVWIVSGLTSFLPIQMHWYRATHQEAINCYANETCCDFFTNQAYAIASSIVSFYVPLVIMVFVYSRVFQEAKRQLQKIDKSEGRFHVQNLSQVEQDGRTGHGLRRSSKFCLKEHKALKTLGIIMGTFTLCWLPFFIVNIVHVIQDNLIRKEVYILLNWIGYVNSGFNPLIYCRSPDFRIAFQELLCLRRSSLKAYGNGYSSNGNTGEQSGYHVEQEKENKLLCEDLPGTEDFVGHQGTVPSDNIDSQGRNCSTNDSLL

As for `CCCCS(=O)(=O)Nc1ccc2cnn(C)c2c1` [GSK3011724A], the EC50 at Serotonin 5HT2A [1] was > 25.1 µM. Also, the IC50 is > 63.1 µM on hERG; > 100 µM in test [2]; > 50.1 µM on Vasopressin V1a; > 50.1 µM at Kv1.5; > 25.1 µM at Histamine H1; > 25.1 µM on KCNQ1/minK. The IC50 on Muscarine M1 was > 50.1 µM; at Dopamine D1, > 100 µM; on OATP1B1, > 50.1 µM; at Serotonin 5HT2C, > 25.1 µM; on Adrenergic β2, > 100 µM; on Serotonin 5HT3, > 50.1 µM. The IC50 was > 50.1 µM at Muscarine M2; > 100 µM on Dopamine D2; > 25.1 µM at Neurokinin NK1; > 100 µM at Serotonin 5HT1B; > 100 µM on NaV1.5; > 50.1 µM on NMDA Channel (NR2B). The IC50 on Adrenergic α1B is > 25.1 µM; on Serotonin 5HT2A [3], > 25.1 µM; at α1 nicotinic AChR, > 50.1 µM. Also, the Kd at KasA lay in the range of 0.01 to 0.02 µM; on NQO2, 4 to 6 µM.
